We go through 34 compounds from patent US8735411B2, “Macrocyclic benzofused pyrimidine derivatives” (AbbVie Inc., priority 2006, dated 2014).

In this assay the target is histamine H4 receptor (Homo sapiens, UniProt Q9H3N8). Put plainly: In vitro histamine H4 potency in FLIPR (Ca2+ flux, HEK-293 cells coexpressing Gαqi5). In kind it is cell-based. Set-up: expressed in transfected cells. To be noted: Kb for antagonists and inverse agonists, EC50 for partial agonists. The procedure, abridged:
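Fluo-4-loaded cells read on FLIPR for intracellular Ca2+ rise after compound addition, with pre-addition fluorescence subtracted. Peak responses per concentration expressed as % of the full-agonist histamine response. Concentration–response fits give Kb for antagonists/inverse agonists and EC50 for partial agonists.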
For orientation: Calcium assays in cells follow changes in intracellular calcium, usually with a dye or a luminescent sensor.

SMILES strings stand for the structures.

Chain of histamine H4 receptor (Q9H3N8 whole entry): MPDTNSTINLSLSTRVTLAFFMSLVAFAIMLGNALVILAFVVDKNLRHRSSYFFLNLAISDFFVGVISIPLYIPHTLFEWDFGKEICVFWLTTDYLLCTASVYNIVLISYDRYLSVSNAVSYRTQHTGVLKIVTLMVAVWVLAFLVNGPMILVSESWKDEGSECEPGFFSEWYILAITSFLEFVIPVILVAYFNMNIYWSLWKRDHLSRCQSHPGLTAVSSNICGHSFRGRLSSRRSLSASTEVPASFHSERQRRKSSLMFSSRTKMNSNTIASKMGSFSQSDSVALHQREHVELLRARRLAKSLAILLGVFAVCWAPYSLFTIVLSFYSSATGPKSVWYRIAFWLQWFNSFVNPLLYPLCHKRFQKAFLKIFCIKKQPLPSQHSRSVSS

As to `CN1[C@@H]2CC[C@H]1CC(Nc1nc(N)nc3c1CCCc1ccccc1-3)C2` (stereo partly drawn) [Example 66, N^4-[(1R,5S)-8-methyl-8-azabicyclo[3.2.1]oct-3-yl]-6,7-dihydro-5H-benzo[6,7]cyclohepta[1,2-d]pyrimidine-2,4-diamine], the Potency came out at 0.017 µM.
As for `CNC1CN(c2nc(N)nc3c2CCSc2ccccc2-3)C1` [Example 33, 4-(3-Methylamino-azetidin-1-yl)-5,6-dihydro-7-thia-1,3-diaza-dibenzo[a,c]cyclohepten-2-ylamine], the figure is 0.013 µM; as for `Nc1nc2c(c(N3CCNCC3)n1)CCCCc1ccccc1-2` [Example 20, 4-Piperazin-1-yl-5,6,7,8-tetrahydro-1,3-diaza-dibenzo[a,c]cycloocten-2-ylamine], 0.032 µM.
As for `Nc1nc(OC2CCNCC2)c2c(n1)-c1ccccc1CCC2` [Example 72, 4-(Piperidin-4-yloxy)-6,7-dihydro-5H-benzo[6,7]cyclohepta[1,2-d]pyrimidin-2-ylamine], the figure is 1.097 µM; as for `c1ccc2c(c1)CCCc1c-2nc(NCCc2c[nH]cn2)nc1N1CC2CCCNC2C1` (stereo not shown) [Example 127, 6-(2-(1H-imidazol-4-yl)ethylamino-6,7-dihydro-5H-benzo[6,7]cyclohepta[1,2-d]pyrimidin-4-yl)octahydro-1H-pyrrolo[3,4-b]pyridine], 0.933 µM.
Next, `CN1CCC(Oc2nc(N)nc3c2CCCc2ccccc2-3)CC1` [Example 68, 4-(1-Methyl-piperidin-4-yloxy)-6,7-dihydro-5H-benzo[6,7]cyclohepta[1,2-d]pyrimidin-2-ylamine]: 0.015 µM; `Nc1nc2c(c(N3CC[C@@H](N)C3)n1)CCCCCc1ccccc1-2` [Example 24, 4-((R)-3-Amino-pyrrolidin-1-yl)-6,7,8,9-tetrahydro-5H-1,3-diaza-dibenzo[a,c]cyclononen-2-ylamine]: 0.148 µM; `CN1CC[C@@H]2CN(c3nc(N)nc4c3CCCc3ccccc3-4)C[C@@H]21` [Example 15, 4-((3aR,6aR)-1-Methyl-hexahydro-pyrrolo[3,4-b]pyrrol-5-yl)-6,7-dihydro-5H-benzo[6,7]cyclohepta[1,2-d]pyrimidin-2-ylamine]: 0.209 µM.
As for `Nc1nc2c(c(N3CCNCC3)n1)CCOc1cc(I)ccc1-2` [Example 101, 9-Iodo-4-piperazin-1-yl-5,6-dihydro-7-oxa-1,3-diaza-dibenzo[a,c]cyclohepten-2-ylamine], the Potency was found to be 0.269 µM.
Next, `Nc1nc2c(c(N3CCNCC3)n1)CCCc1ccc(F)cc1-2` [Example 13, 10-Fluoro-4-piperazin-1-yl-6,7-dihydro-5H-benzo[6,7]cyclohepta[1,2-d]pyrimidin-2-ylamine]: 0.0072 µM.
Next, `Nc1nc2c(c(N3CC4CCCNC4C3)n1)CCCc1ccc(F)cc1-2` (stereo not shown) [Example 115, 10-fluoro-4-octahydro-6H-pyrrolo[3,4-b]pyridin-6-yl-6,7-dihydro-5H-benzo[6,7]cyclohepta[1,2-d]pyrimidin-2-amine]: 0.032 µM.
The compound `CN[C@@H]1CCN(c2nc(N)nc3c2CCOc2ccc(C)cc2-3)C1` [Example 46, 10-methyl-4-[(3R)-3-(methylamino)pyrrolidin-1-yl]-5,6-dihydro[1]benzoxepino[5,4-d]pyrimidin-2-amine] had a Potency of 0.1 µM.
With `Nc1nc2c(c(N3CC4(CCCCN4)C3)n1)CCCc1ccccc1-2` [Example 78, 4-(2,5-Diaza-spiro[3.5]non-2-yl)-6,7-dihydro-5H-benzo[6,7]cyclohepta[1,2-d]pyrimidin-2-ylamine], the Potency was 0.891 µM.
`CN1CCC(Nc2nc(N)nc3c2CCCc2ccccc2-3)CC1` [Example 65, N^4-(1-methylpiperidin-4-yl)-6,7-dihydro-5H-benzo[6,7]cyclohepta[1,2-d]pyrimidine-2,4-diamine] showed a Potency of 0.013 µM.
Next, `c1ccc2c(c1)CCCc1c-2nc(N2CCNCC2)nc1N1CCNCC1` [Example 103, 2,4-Di-piperazin-1-yl-6,7-dihydro-5H-benzo[6,7]cyclohepta[1,2-d]pyrimidine]: 0.351 µM; `O=C(Nc1nc2c(c(N3CCNCC3)n1)CCCc1ccccc1-2)c1ccccc1` [Example 84, N-(4-Piperazin-1-yl-6,7-dihydro-5H-benzo[6,7]cyclohepta[1,2-d]pyrimidin-2-yl)-benzamide]: 3.388 µM.
As for `CN[C@@H]1CCN(c2nc(N)nc3c2CCOc2c(Cl)cccc2-3)C1` [Example 51, 8-chloro-4-[(3R)-3-(methylamino)pyrrolidin-1-yl]-5,6-dihydro[1]benzoxepino[5,4-d]pyrimidin-2-amine], the figure is 0.041 µM; as for `Nc1nc2c(c(N3CC[C@@H](N)C3)n1)CCSc1ccccc1-2` [Example 35, 4-(3-(R)-Amino-pyrrolidin-1-yl)-5,6-dihydro-7-thia-1,3-diaza-dibenzo[a,c]cyclohepten-2-ylamine], 0.891 µM.
`CN1CCN(c2nc(N)nc3c2CCOc2ccccc2-3)CC1` [Example 29, 4-(4-Methyl-piperazin-1-yl)-5,6-dihydro-7-oxa-1,3-diaza-dibenzo[a,c]cyclohepten-2-ylamine]: the Potency amounted to 0.039 µM.
As for `Nc1nc2c(c(N3CCNCC3)n1)CCCc1cc3c(cc1-2)CCCC3` [Example 99, 4-Piperazin-1-yl-6,7,9,10,11,12-hexahydro-5H-1,3-diaza-benzo[3,4]cyclohepta[1,2b]naphthalen-2-ylamine], the figure is 0.025 µM; as for `CNC(=O)Nc1nc2c(c(N3CCNCC3)n1)CCCc1ccccc1-2` [Example 90, 1-Methyl-3-(4-piperazin-1-yl-6,7-dihydro-5H-benzo[6,7]cyclohepta[1,2-d]pyrimidin-2-yl)-urea], 25.119 µM; as for `Nc1nc2c(c(N3C[C@H]4CNC[C@H]43)n1)CCCc1ccccc1-2` [Example 117, (1R,5S)-4-(3,6-Diaza-bicyclo[3.2.0]hept-6-yl)-6,7-dihydro-5H-benzo[6,7]cyclohepta[1,2-d]pyrimidin-2-ylamine], 0.012 µM.
In the case of `CN(C)[C@@H]1CCN(c2nc(N)nc3c2CCCc2ccccc2-3)C1` [Example 76, 4-((R)-3-Dimethylamino-pyrrolidin-1-yl)-6,7-dihydro-5H-benzo[6,7]cyclohepta[1,2-d]pyrimidin-2-ylamine], the Potency is 0.055 µM.
Take `Nc1nc(NCCC2CCN2)c2c(n1)-c1ccccc1CCC2` (stereo not shown) [Example 63, N^4-(2-azetidin-2-ylethyl)-6,7-dihydro-5H-benzo[6,7]cyclohepta[1,2-d]pyrimidine-2,4-diamine]: the Potency amounted to 0.269 µM.
As for `CN(C)CCOc1nc(N)nc2c1CCCc1ccccc1-2` [Example 74, 4-(2-Dimethylamino-ethoxy)-6,7-dihydro-5H-benzo[6,7]cyclohepta[1,2-d]pyrimidin-2-ylamine], the figure is 0.219 µM; as for `CN[C@@H]1CCN(c2nc(N)nc3c2CCCCCc2ccccc2-3)C1` [Example 23, 4-(3-(R)-Methylamino-pyrrolidin-1-yl)-6,7,8,9-tetrahydro-5H-1,3-diaza-dibenzo[a,c]cyclononen-2-ylamine], 0.056 µM.
Next, `Nc1nc2c(c(N3CCNCC3)n1)CCc1ccccc1-2` [Example 44, 4-Piperazin-1-yl-5,6-dihydro-benzo[h]quinazolin-2-ylamine]: 0.024 µM; `Nc1nc2c(c(N3CCNCC3)n1)COc1ccccc1-2` [Example 10, 1-Piperazin-1-yl-10H-9-oxa-2,4-diaza-phenanthren-3-ylamine]: 0.01 µM; `Nc1nc(NC[C@H]2CCN2)c2c(n1)-c1ccccc1CCC2` [Example 64, N^4-[(2R)-azetidin-2-ylmethyl]-6,7-dihydro-5H-benzo[6,7]cyclohepta[1,2-d]pyrimidine-2,4-diamine]: 1.549 µM.
Next, `CN[C@@H]1CCN(c2nc(N)nc3c2SCCc2ccccc2-3)C1` [Example 107, 4-((R)-3-Methylamino-pyrrolidin-1-yl)-6,7-dihydro-5-thia-1,3-diaza-dibenzo[a,c]cyclohepten-2-ylamine]: 0.011 µM; `Nc1nc(NC2CCCNC2)c2c(n1)-c1ccccc1CCC2` (stereo not shown) [Example 121, N^4-piperidin-3-yl-6,7-dihydro-5H-benzo[6,7]cyclohepta[1,2-d]pyrimidine-2,4-diamine]: 0.407 µM.
`CN(C)CC(=O)Nc1nc2c(c(N3CCNCC3)n1)CCCc1ccccc1-2` [Example 87, 2-Dimethylamino-N-(4-piperazin-1-yl-6,7-dihydro-5H-benzo[6,7]cyclohepta[1,2-d]pyrimidin-2-yl)-acetamide] yielded a Potency of 0.174 µM.
Next, `CC(=O)Nc1nc2c(c(N3CCNCC3)n1)CCCc1ccccc1-2` [Example 83, N-(4-Piperazin-1-yl-6,7-dihydro-5H-benzo[6,7]cyclohepta[1,2-d]pyrimidin-2-yl)-acetamide]: 2.951 µM; `N#Cc1ccc2c(c1)OCCc1c-2nc(N)nc1N1CC2CCCNC2C1` (stereo not shown) [Example 104, 2-Amino-4-octahydro-pyrrolo[3,4-b]pyridin-6-yl-5,6-dihydro-7-oxa-1,3-diaza-dibenzo[a,c]cycloheptene-9-carbonitrile]: 0.141 µM.
